Source: patent publication US11058678B2 (Enanta Pharmaceuticals, Inc., priority 2018, dated 2021)

These compounds were tested on HBV (2.2.15 cells) (assay: Antiviral activity in 2.2.15 cells: reduction of viral product accumulation (qPCR of lysates, HBsAg or HBeAg ELISA)). Details: Hepatitis B virus, 120 h, day 5 post treatment, 50% reduction of viral product accumulation in lysates or supernatants vs no drug controls, readout (qPCR, HBsAg, HBeAg) not specified.
Assay type: cell-based, hepatitis B virus (HBV)
Description: 2.2.15 cells are passaged upon attaining confluency in DMEM/F12 media in the presence of 10% FBS, Penn/Strep, and 250 ug/mL G418. Novel compounds are 5 fold serially diluted in DMSO and added to 96 well plates containing 35,000 cells/well at a 1:200 dilution so that the final concentration of DMSO is 0.5%. On day 5, post treatment cell lysates and supernatants are harvested for analysis.
Cells are lysed using Agilent Sidestep Lysis buffer, diluted 1:100 and quantified via quantitative real time PCR. Commercially available ELISA kits are used to quantitate the viral proteins HBsAg (Alpco) or HBeAg (US Biological) by following the manufacturer's recommended protocol after diluting samples to match the linear range of their respective assays. Irrespective of readout, compound concentrations that reduce viral product accumulation in the cell lysates or supernatants by 50% relative to no drug controls (EC50) are reported; EC50 ranges are as follows: A<0.1 μM; B 0.1-1 μM; C>1 μM.

SMILES | EC50 [nM]
CC(C)(C)[C@@H]1Cc2ccc(N3CC(F)(F)C3)cc2-c2cc(=O)c(C(=O)O)cn21 [Example 154, (S)-6-(tert-butyl)-10-(3,3-difluoroazetidin-1-yl)-2-oxo-6,7-dihydro-2H-pyrido[2,1-a]isoquinoline-3-carboxylic Acid] | > 1000
COCCCCc1cc2c(cc1-c1ccc(F)cc1)-c1cc(=O)c(C(=O)O)cn1[C@H](C(C)(C)C)C2 [Example 134, (S)-6-(tert-butyl)-10-(4-fluorophenyl)-9-(4-methoxybutyl)-2-oxo-6,7-dihydro-2H-pyrido[2,1-a]isoquinoline-3-carboxylic Acid] | < 100
Cn1cc(-c2cc3c(c4c2OCC4)C[C@@H](C(C)(C)C)n2cc(C(=O)O)c(=O)cc2-3)cn1 [Example 69, (S)-5-(tert-butyl)-12-(1-methyl-1H-pyrazol-4-yl)-9-oxo-2,3,4,9-tetrahydro-5H-furo[3,2-f]pyrido[2,1-a]isoquinoline-8-carboxylic Acid] | < 100
COc1ccc(-c2cc3c(c4c2OCC4)C[C@@H](C(C)(C)C)n2cc(C(=O)O)c(=O)cc2-3)cc1 [Example 78, (S)-5-(tert-butyl)-12-(4-methoxyphenyl)-9-oxo-2,3,4,9-tetrahydro-5H-furo[3,2-f]pyrido[2,1-a]isoquinoline-8-carboxylic Acid] | < 100
COCCCOc1cc2c(cc1C1=COCCC1)-c1cc(=O)c(C(=O)O)cn1[C@H](C(C)(C)C)C2 [Example 42, (S)-6-(tert-butyl)-10-(3,4-dihydro-2H-pyran-5-yl)-9-(3-methoxypropoxy)-2-oxo-6,7-dihydro-2H-pyrido[2,1-a]isoquinoline-3-carboxylic Acid] | < 100
CC1(C)Cc2c3c(cc(-c4ccoc4)c2O1)-c1cc(=O)c(C(=O)O)cn1[C@H](C(C)(C)C)C3 [Example 133, (S)-5-(tert-butyl)-12-(furan-3-yl)-2,2-dimethyl-9-oxo-2,3,4,9-tetrahydro-5H-furo[3,2-f]pyrido[2,1-a]isoquinoline-8-carboxylic acid] | 100 to 1000
CC(C)[C@@H]1Cc2c(cc(-c3ccc(F)c(F)c3)c3c2CCO3)-c2cc(=O)c(C(=O)O)cn21 [Example 114, (S)-12-(3,4-difluorophenyl)-5-isopropyl-9-oxo-2,3,4,9-tetrahydro-5H-furo[3,2-f]pyrido[2,1-a]isoquinoline-8-carboxylic Acid] | > 1000
CC1(C)Cc2c3c(cc(-c4ccn[nH]4)c2O1)-c1cc(=O)c(C(=O)O)cn1[C@H](C(C)(C)C)C3 [Example 146, (S)-5-(tert-butyl)-2,2-dimethyl-9-oxo-12-(1H-pyrazol-5-yl)-2,3,4,9-tetrahydro-5H-furo[3,2-f]pyrido[2,1-a]isoquinoline-8-carboxylic Acid] | > 1000
COCCCOc1cc2c(cc1-c1ccsc1)-c1cc(=O)c(C(=O)O)cn1[C@H]1[C@@H]2COC1(C)C [Example 143, (3aS,12bR)-11-(3-methoxypropoxy)-3,3-dimethyl-7-oxo-10-(thiophen-3-yl)-3,3a,7,12b-tetrahydro-1H-furo[3,4-c]pyrido[2,1-a]isoquinoline-6-carboxylic Acid] | < 100
COCCCOc1cc2c(cc1-c1cnco1)-c1cc(=O)c(C(=O)O)cn1[C@H]1[C@@H]2COC1(C)C [Example 121, (3aS,12bR)-11-(3-methoxypropoxy)-3,3-dimethyl-10-(oxazol-5-yl)-7-oxo-3,3a,7,12b-tetrahydro-1H-furo[3,4-c]pyrido[2,1-a]isoquinoline-6-carboxylic Acid] | < 100
CC(C)(C)[C@@H]1Cc2c(cc(-c3ccccc3Cl)c3c2CCO3)-c2cc(=O)c(C(=O)O)cn21 [Example 76, (S)-5-(tert-butyl)-12-(2-chlorophenyl)-9-oxo-2,3,4,9-tetrahydro-5H-furo[3,2-f]pyrido[2,1-a]isoquinoline-8-carboxylic Acid] | < 100
COCCCCc1cc2c(cc1N1CC(F)(F)C1)-c1cc(=O)c(C(=O)O)cn1[C@H](C(C)(C)C)C2 [Example 153, (S)-6-(tert-butyl)-10-(3,3-difluoroazetidin-1-yl)-9-(4-methoxybutyl)-2-oxo-6,7-dihydro-2H-pyrido[2,1-a]isoquinoline-3-carboxylic Acid] | < 100
CC(C)[C@@H]1Cc2c(cc(-c3cccc(C(F)(F)F)c3)c3c2CCO3)-c2cc(=O)c(C(=O)O)cn21 [Example 95, (S)-5-isopropyl-9-oxo-12-(3-(trifluoromethyl)phenyl)-2,3,4,9-tetrahydro-5H-furo[3,2-f]pyrido[2,1-a]isoquinoline-8-carboxylic Acid] | > 1000
CC(C)(C)[C@@H]1Cc2c(cc(-c3cnco3)c3c2CCO3)-c2cc(=O)c(C(=O)O)cn21 [Example 83, (S)-5-(tert-butyl)-12-(oxazol-5-yl)-9-oxo-2,3,4,9-tetrahydro-5H-furo[3,2-f]pyrido[2,1-a]isoquinoline-8-carboxylic Acid] | < 100
CC(C)[C@@H]1Cc2c(cc(-c3ccoc3)c3c2CCO3)-c2cc(=O)c(C(=O)O)cn21 [Example 90, (S)-12-(furan-3-yl)-5-isopropyl-9-oxo-2,3,4,9-tetrahydro-5H-furo[3,2-f]pyrido[2,1-a]isoquinoline-8-carboxylic Acid] | < 100
COCCCOc1cc2c(cc1-c1cccnc1)-c1cc(=O)c(C(=O)O)cn1[C@H]1[C@@H]2COC1(C)C [Example 128, (3aS,12bR)-11-(3-methoxypropoxy)-3,3-dimethyl-7-oxo-10-(pyridin-3-yl)-3,3a,7,12b-tetrahydro-1H-furo[3,4-c]pyrido[2,1-a]isoquinoline-6-carboxylic Acid] | < 100
COCCCOc1cc2c(cc1-c1ccc3c(c1)OCCO3)-c1cc(=O)c(C(=O)O)cn1[C@H](C(C)(C)C)C2 [Example 31, (S)-6-(tert-butyl)-10-(2,3-dihydrobenzo[b][1,4]dioxin-6-yl)-9-(3-methoxypropoxy)-2-oxo-6,7-dihydro-2H-pyrido[2,1-a]isoquinoline-3-carboxylic Acid] | < 100
COCCCOc1cc2c(cc1-c1cnsc1)-c1cc(=O)c(C(=O)O)cn1[C@H]1[C@@H]2COC1(C)C [Example 127, (3aS,12bR)-10-(isothiazol-4-yl)-11-(3-methoxypropoxy)-3,3-dimethyl-7-oxo-3,3a,7,12b-tetrahydro-1H-furo[3,4-c]pyrido[2,1-a]isoquinoline-6-carboxylic Acid] | < 100
CC(C)(C)[C@@H]1Cc2c(cc(N3CC4(COC4)C3)c3c2CCO3)-c2cc(=O)c(C(=O)O)cn21 [Example 119, (S)-5-(tert-butyl)-9-oxo-12-(2-oxa-6-azaspiro[3.3]heptan-6-yl)-2,3,4,9-tetrahydro-5H-furo[3,2-f]pyrido[2,1-a]isoquinoline-8-carboxylic Acid] | > 1000
COCCCOc1cc2c(cc1-c1ccc(OC(F)(F)F)cc1)-c1cc(=O)c(C(=O)O)cn1[C@H](C(C)(C)C)C2 [Example 37, (S)-6-(tert-butyl)-9-(3-methoxypropoxy)-2-oxo-10-(4-(trifluoromethoxy)phenyl)-6,7-dihydro-2H-pyrido[2,1-a]isoquinoline-3-carboxylic Acid] | > 1000
COCCCOc1cc2c(cc1-c1nnc(C)o1)-c1cc(=O)c(C(=O)O)cn1[C@H](C(C)(C)C)C2 [Example 49, (S)-6-(tert-butyl)-9-(3-methoxypropoxy)-10-(5-methyl-1,3,4-oxadiazol-2-yl)-2-oxo-6,7-dihydro-2H-pyrido[2,1-a]isoquinoline-3-carboxylic Acid] | < 100
COCCCOc1cc2c(cc1-c1cnnn1C)-c1cc(=O)c(C(=O)O)cn1[C@H](C(C)(C)C)C2 [Example 48, (S)-6-(tert-butyl)-9-(3-methoxypropoxy)-10-(1-methyl-1H-1,2,3-triazol-5-yl)-2-oxo-6,7-dihydro-2H-pyrido[2,1-a]isoquinoline-3-carboxylic Acid] | < 100
COCCCOc1cc2c(cc1-c1cc(OC)nnc1OC)-c1cc(=O)c(C(=O)O)cn1[C@H](C(C)(C)C)C2 [Example 45, (S)-6-(tert-butyl)-10-(3,6-dimethoxypyridazin-4-yl)-9-(3-methoxypropoxy)-2-oxo-6,7-dihydro-2H-pyrido[2,1-a]isoquinoline-3-carboxylic Acid] | < 100
COCCCOc1cc2c(cc1-c1cn[nH]c1)-c1cc(=O)c(C(=O)O)cn1[C@H]1[C@@H]2COC1(C)C [Example 135, (3aS,12bR)-11-(3-methoxypropoxy)-3,3-dimethyl-7-oxo-10-(1H-pyrazol-4-yl)-3,3a,7,12b-tetrahydro-1H-furo[3,4-c]pyrido[2,1-a]isoquinoline-6-carboxylic Acid] | < 100
COc1ccc(-c2cc3c(c4c2OCC4)C[C@@H](C(C)C)n2cc(C(=O)O)c(=O)cc2-3)cc1 [Example 115, (S)-5-isopropyl-12-(4-methoxyphenyl)-9-oxo-2,3,4,9-tetrahydro-5H-furo[3,2-f]pyrido[2,1-a]isoquinoline-8-carboxylic Acid] | > 1000
COCCCOc1cc2c(cc1N1CCC(F)(F)C1)-c1cc(=O)c(C(=O)O)cn1[C@H](C(C)(C)C)C2 [Example 54, (S)-6-(tert-butyl)-10-(3,3-difluoropyrrolidin-1-yl)-9-(3-methoxypropoxy)-2-oxo-6,7-dihydro-2H-pyrido[2,1-a]isoquinoline-3-carboxylic Acid] | 100 to 1000
COCCCOc1cc2c(cc1-c1ccccc1F)-c1cc(=O)c(C(=O)O)cn1[C@H]1[C@@H]2COC1(C)C [Example 136, (3aS,12bR)-10-(2-fluorophenyl)-11-(3-methoxypropoxy)-3,3-dimethyl-7-oxo-3,3a,7,12b-tetrahydro-1H-furo[3,4-c]pyrido[2,1-a]isoquinoline-6-carboxylic Acid] | < 100
